Results as given in patent US20060281807A1, “Quassinoid compositions for the treatment of cancer and other proliferative diseases” (Tapestry Pharmaceuticals, Inc., priority 2005, published 2006).
≈ marks a conversion by molar mass, not a printed value. Where “and” joins values, the source holds several entries; their conditions need not be identical. Equal entries are not always repeated. Where two headings read alike, the source gives them in different places.

Experiments:
[1] = test system: H125 (human lung carcinoma); assay: Disk diffusion assay, zone of inhibition, H125; assay type: cell-based; settings: 1 mg/mL
[2] = Maximum tolerated dose in mice; settings: for MTD / MTD at 30 days: mouse, in vivo, iv
Description: Formulations containing 15-O-(3′-hydroxy-3′-isopropyl-4′-methylpentanoyl)bruceolide, 15-(3-isopropyl-4-methyl-2-pentenoyl)-bruceolide, and, for comparative purposes, bruceantin, or peninsularinone were prepared by solubilizing each compound in up to 100 mg/mL of ethanol. These solutions were diluted 1:1 with a stabilizer (Cremophor/propylene glycol). The solutions were then diluted in saline (1:10 minimum).
The maximum tolerated dose (MTD) was determined by a two-stage experiment. In the first stage, between 1 and 10 mg/mL of the formulation was prepared as described above. Next, 0.25 mL of the formulation was injected intravenously into one 20 gram mouse (0.75 mg/mouse). If the animal died within 30 days of injection, a series of subsequent 2-fold dilutions were administered to individual mice until an MTD was defined. […] The second stage of the study involved increasing the number of mice per dose to four, and retesting four dilutions that bracket the MTD from the individual mouse study. The four dilutions were the MTD, a dosage twice the MTD, a dosage ½ the MTD, and a dosage ¼ the MTD.

HCT-116 cells [3] = assay: HCT-116 cytotoxicity, viable cell count by trypan blue; assay type: cell-based, human; settings: for IC90/IC50: HCT-116; for IC50 / IC90: Homo sapiens
[4] = test system: HCT116 (human colorectal carcinoma); assay: Disk diffusion assay, zone of inhibition, HCT116; assay type: cell-based; settings: 1 mg/mL
HCT-116 cells [5] = assay: Clonogenic assay, HCT-116; assay type: cell-based, human; settings: colonies at 7 days
[6] = test system: Colon 38 (murine colon adenocarcinoma); assay: Disk diffusion assay, zone of inhibition, Colon 38; zone differentials, potency and product; assay type: cell-based; design: key to C38ΔL1210 / C38ΔCFU: difference of zone of inhibition values, in zone units; settings: for zone of inhibition, Colon 38: 1 mg/mL; for Sum: C38ΔL1210 plus C38ΔCFU; for C38ΔL1210: Colon38 vs L1210 leukemia
Procedure, shortened: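 Dissociated Colon 38 cells were plated in soft agar over a hard agar layer; 15 µl of compound dilution dried on a 6.5 mm disk was placed on the plate, and incubation ran 7–10 days. Inhibition zone was measured from disk edge to normal colonies, with the disk diameter = 200 units. Potency = dilution giving 500 units; the product multiplies it by the differentials against L1210 or CFU-GM.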

[7] = no dilution, 15 μl on disk, 6.5 mm = 200 units
[8] = intravenous, first stage, one mouse per dose
[9] = intravenous, second stage, four mice per dose
[10] = maximum tolerated dose, Dose - 1 Mouse, first stage, one mouse per dose
[11] = maximum tolerated dose, Dose - 4 Mice, second stage, four mice per dose
[12] = difference between zone of inhibition values

| SMILES | zone of inhibition, H-125 M ([1]; dilution 1/1000) [units] | zone of inhibition, H-125 M [1, 7] [units] | maximum tolerated dose, Dose - 1 Mouse [2, 8] [mg/mouse] | maximum tolerated dose, Dose - 4 Mice [2, 9] [mg/mouse] | IC90/IC50 (HCT-116 cells [3]) | zone of inhibition, H-116 ([4]; dilution 1/10) | zone of inhibition, H-116 ([4]; dilution 1/1000) [units] | zone of inhibition, H-116 [4, 7] [units] | Concentration Required for 10^−1 Survival Fraction (HCT-116 cells [5]; HCT-116, 2 Hour Exposure) [μg/mL] | Concentration Required for 10^−1 Survival Fraction (HCT-116 cells [5]; HCT-116, 24 Hour Exposure) | Concentration Required for 10^−1 Survival Fraction (HCT-116 cells [5]; HCT-116, Continuous Exposure) | zone of inhibition, Colon 38 ([6]; dilution 1/10) [units] | zone of inhibition, Colon 38 ([6]; dilution 1/100) | zone of inhibition, Colon 38 ([6]; dilution 1/1000) | zone of inhibition, Colon 38 [6, 7] [units] | Sum [6] | C38ΔL1210 [6, 12] | other results |
| --- | --- | --- | --- | --- | --- | --- | --- | --- | --- | --- | --- | --- | --- | --- | --- | --- | --- | --- |
| COC(=O)[C@@]12OC[C@@]34C1[C@@H](OC(=O)CC(O)(C(C)C)C(C)C)C(=O)O[C@@H]3C[C@H]1C(C)=C(O)C(=O)C[C@]1(C)[C@H]4[C@@H](O)[C@@H]2O (stereo partly drawn) [15-O-(3′-hydroxy-3′-isopropyl-4′-methylpentanoyl)bruceolide] | 0 | >1000 | 3.2 | 1.5 | 35 | 1000 units and 900 units | 0 | >1000 | >10 | 1 × 10^0 μg/mL | 7 × 10^−3 μg/mL | >1000 | 750 units and 600 units and 500 units | 400 units and 250 units | >1000 | 750 and 1450 | 400 and 550 | mice survived the duration of the experiment ([2]; dose of either 1.5 or 0.75 mg/mouse, intravenous (FIG. 6)): 100%; MTD ([2]; MTD, mice): 60 to 65 mg/kg/day; MTD [2, 10]: 109 mg/kg; MTD [2, 11]: 60 mg/kg; IC50 (HCT-116 cells [3]; 72 h, HCT-116, 3 days with compound, viable cells, by interpolation, read-out: IC50): 1.9 ng/mL (≈ 0.0032 µM); IC90 (HCT-116 cells [3]; 72 h, HCT-116, 3 days with compound, viable cells, by interpolation, read-out: IC90): 0.067 µg/mL (≈ 0.113 µM); zone of inhibition, Colon 38 ([6]; dilution 1/400): 300 units |
| COC(=O)[C@@]12OC[C@@]34C1[C@@H](OC(=O)C=C(C(C)C)C(C)C)C(=O)O[C@@H]3C[C@H]1C(C)=C(O)C(=O)C[C@]1(C)[C@H]4[C@@H](O)[C@@H]2O (stereo partly drawn) [15-O-(3′-isopropyl-4′-methyl-2′-pentenoyl)-bruceolide] | 100 | >1000 | 0.05 | 0.25 | 7 | 750 units | 0 | >1000 | >10 | 1.5 × 10^0 μg/mL | 1.5 × 10^−3 μg/mL | >1000 | 850 units and 650 units | 450 units | >1000 | 750 | 300 | zone of inhibition, H-125 M ([1]; dilution 1/10): 1100 units; zone of inhibition, H-125 M ([1]; dilution 1/100): 500 units; mice survived the duration of the experiment ([2]; dose of 0.1, 0.075, 0.05, or 0.025 mg/mouse, intravenous): 100%; MTD at 30 days [2, 10]: 2.9 mg/kg; MTD at 30 days [2, 11]: 4 mg/kg; IC50 (HCT-116 cells [3]; HCT-116, 72 h): 1.5 ng/mL (≈ 0.0026 µM); IC90 (HCT-116 cells [3]; HCT-116, 72 h): 0.01 µg/mL (≈ 0.0173 µM); zone of inhibition, H-116 ([4]; dilution 1/100): 100 units; C38ΔCFU ([6]; difference between zone of inhibition values, Colon38 vs normal cell CFU-GM): 450; Product ([6]; potency multiplied by zone differentials): 4500 |
